According to ChEMBL document CHEMBL5154648, “Antitumor activity of novel POLA1-HDAC11 dual inhibitors” (Eur J Med Chem, 2022):
Activity calls are given as the source filed them. The rule behind the calls is not given here.

Experiments:
Z-138 = assay: Antiproliferative activity against human Z138 cells incubated for 24 hrs followed by incubating in drug-free medium for 48 hrs and measured by SRB assay; type: functional, cell-based
[1] = Antiproliferative activity against human U-87 MG cells incubated for 24 hrs followed by incubating in drug-free medium for 48 hrs and measured by SRB assay; type: functional, cell-based, U-87MG ATCC
L-428 = assay: Antiproliferative activity against human L-428 cells incubated for 24 hrs followed by incubating in drug-free medium for 48 hrs and measured by SRB assay; type: functional, cell-based
MDA-MB-436 = assay: Antiproliferative activity against human MDA-MB-436 cells incubated for 24 hrs followed by incubating in drug-free medium for 48 hrs and measured by SRB assay; type: functional, cell-based
[2] = Resistance index, ratio of IC50 for human A2780 cells to IC50 for A2780-DX cells; type: functional
Histone deacetylase 11 = biological target: T1, Histone deacetylase 11 (Homo sapiens, UniProt Q96DB2); assay: Inhibition of HDAC11 (unknown origin) using fluorogenic peptide 382 RHKK(Ac)AM as substrate and measured by fluorescence assay
T1 sequence (Q96DB2 whole entry): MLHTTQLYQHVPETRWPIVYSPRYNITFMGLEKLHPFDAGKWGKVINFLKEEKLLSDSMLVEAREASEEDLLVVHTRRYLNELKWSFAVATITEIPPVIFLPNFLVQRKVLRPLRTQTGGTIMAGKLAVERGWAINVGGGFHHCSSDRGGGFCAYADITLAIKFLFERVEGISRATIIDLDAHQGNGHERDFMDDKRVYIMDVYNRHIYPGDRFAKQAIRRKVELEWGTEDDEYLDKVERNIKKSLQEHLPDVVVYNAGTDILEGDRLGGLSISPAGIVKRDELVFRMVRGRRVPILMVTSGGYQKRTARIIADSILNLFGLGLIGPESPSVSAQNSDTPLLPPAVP

U2932 = assay: Antiproliferative activity against human U2932 cells incubated for 24 hrs followed by incubating in drug-free medium for 48 hrs and measured by SRB assay; type: functional, cell-based
NB-4 = assay: Antiproliferative activity against human NB-4 cells incubated for 24 hrs followed by incubating in drug-free medium for 48 hrs and measured by SRB assay; type: functional, cell-based
[3] = Antiproliferative activity against multi-drug resistant human A2780-DX cells incubated for 24 hrs followed by incubating in drug-free medium for 48 hrs and measured by SRB assay; type: functional, cell-based
[4] = Resistance index, ratio of IC50 for human NCI-H460 cells to IC50 for H460-R9A cells; type: functional
THP-1 = assay: Antiproliferative activity against human THP-1 cells incubated for 24 hrs followed by incubating in drug-free medium for 48 hrs and measured by SRB assay; type: functional, cell-based
MM473 = assay: Antiproliferative activity against human MM473 cells incubated for 24 hrs followed by incubating in drug-free medium for 48 hrs and measured by SRB assay; type: functional, cell-based
A2780 = assay: Antiproliferative activity against human A2780 cells incubated for 24 hrs followed by incubating in drug-free medium for 48 hrs and measured by SRB assay; type: functional, cell-based
Ramos = assay: Antiproliferative activity against human Ramos cells incubated for 24 hrs followed by incubating in drug-free medium for 48 hrs and measured by SRB assay; type: functional, cell-based
[5] = biological target: T2, DNA polymerase alpha catalytic subunit (Homo sapiens) (UniProt P09884); assay: Inhibition of POLA1 in human NCI-H460 cells at 0.1 to 0.4 uM assessed as upregulation of p21 expression and measured by Western blot analysis; type: cell-based; details: dose 0.1-0.4 µM
T2 sequence (whole entry): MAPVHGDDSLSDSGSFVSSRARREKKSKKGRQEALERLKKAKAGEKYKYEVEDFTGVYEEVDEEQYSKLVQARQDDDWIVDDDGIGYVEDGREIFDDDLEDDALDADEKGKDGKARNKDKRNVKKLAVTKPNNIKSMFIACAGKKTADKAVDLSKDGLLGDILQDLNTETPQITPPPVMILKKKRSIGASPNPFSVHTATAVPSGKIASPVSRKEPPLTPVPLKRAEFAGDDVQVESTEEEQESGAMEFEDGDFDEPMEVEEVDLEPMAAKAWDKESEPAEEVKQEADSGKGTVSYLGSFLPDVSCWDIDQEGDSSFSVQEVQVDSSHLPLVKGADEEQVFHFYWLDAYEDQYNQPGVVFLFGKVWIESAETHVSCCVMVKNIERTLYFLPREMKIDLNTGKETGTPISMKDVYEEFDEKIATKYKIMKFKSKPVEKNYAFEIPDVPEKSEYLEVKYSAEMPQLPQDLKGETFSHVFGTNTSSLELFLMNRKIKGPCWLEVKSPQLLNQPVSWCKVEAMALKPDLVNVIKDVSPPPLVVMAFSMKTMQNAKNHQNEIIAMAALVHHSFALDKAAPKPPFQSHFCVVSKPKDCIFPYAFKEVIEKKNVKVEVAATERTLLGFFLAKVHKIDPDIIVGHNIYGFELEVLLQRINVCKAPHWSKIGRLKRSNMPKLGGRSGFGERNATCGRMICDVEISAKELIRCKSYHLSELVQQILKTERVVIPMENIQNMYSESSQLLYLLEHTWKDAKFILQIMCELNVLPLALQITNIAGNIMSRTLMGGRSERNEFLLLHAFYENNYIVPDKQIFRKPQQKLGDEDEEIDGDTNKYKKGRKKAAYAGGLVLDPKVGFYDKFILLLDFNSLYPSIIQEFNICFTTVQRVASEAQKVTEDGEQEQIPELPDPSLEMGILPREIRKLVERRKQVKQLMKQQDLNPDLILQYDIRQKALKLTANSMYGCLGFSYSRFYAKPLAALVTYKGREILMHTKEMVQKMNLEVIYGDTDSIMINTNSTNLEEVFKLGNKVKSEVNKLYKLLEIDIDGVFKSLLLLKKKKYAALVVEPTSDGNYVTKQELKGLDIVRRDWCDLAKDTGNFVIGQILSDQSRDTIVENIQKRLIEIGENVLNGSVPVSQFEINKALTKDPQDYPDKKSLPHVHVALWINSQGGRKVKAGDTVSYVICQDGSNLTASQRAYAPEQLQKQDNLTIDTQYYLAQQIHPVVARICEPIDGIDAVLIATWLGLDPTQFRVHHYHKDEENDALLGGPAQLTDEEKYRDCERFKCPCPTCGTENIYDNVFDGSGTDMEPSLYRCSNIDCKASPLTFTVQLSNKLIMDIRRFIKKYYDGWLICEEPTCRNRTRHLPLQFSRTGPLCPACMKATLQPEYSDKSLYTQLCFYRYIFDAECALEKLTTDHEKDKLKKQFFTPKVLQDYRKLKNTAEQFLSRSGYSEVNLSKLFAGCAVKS

NCI-H460 = assay: Antiproliferative activity against human NCI-H460 cells incubated for 24 hrs followed by incubating in drug-free medium for 48 hrs and measured by SRB assay; type: functional, cell-based
[6] = Antiproliferative activity against human MM487 cells incubated for 24 hrs followed by incubating in drug-free medium for 48 hrs and measured by SRB assay; type: functional, cell-based
[7] = Antiproliferative activity against human MM432 cells incubated for 24 hrs followed by incubating in drug-free medium for 48 hrs and measured by SRB assay; type: functional, cell-based
[8] = Antiproliferative activity against human H460-R9A cells incubated for 24 hrs followed by incubating in drug-free medium for 48 hrs and measured by SRB assay; type: functional, cell-based

Row | Compound | IC50 (Z-138) [nM] | IC50 [1] [nM] | IC50 (L-428) [nM] | IC50 (MDA-MB-436) [nM] | Ratio IC50 [2] | IC50 (Histone deacetylase 11) [nM] | IC50 (U2932) [nM] | IC50 (NB-4) [nM] | IC50 [3] [nM] | Ratio IC50 [4] | IC50 (THP-1) [nM] | IC50 (MM473) [nM] | IC50 (A2780) [nM] | IC50 (Ramos) [nM] | inhibition [5] | IC50 (NCI-H460) [nM] | IC50 [6] [nM] | IC50 [7] [nM] | IC50 [8] [nM]
1 | CC(Oc1ccc(-c2ccc(C=CC(=O)O)cc2)cc1C12CC3CC(CC(C3)C1)C2)C(=O)NO (configuration not stated) | 160 | 1000 | 3200 | 770 | 0.7 | 8230 | 770 | 230 | 660 | 8.5 | 520 | 1400 | 950 | 1200 | Active | 260 | 730 | 1400 | 2200
2 | O=C(O)C=Cc1ccc(-c2ccc(O)c(C34CC5CC(CC(C5)C3)C4)c2)cc1 | 26 | 530 | 450 | 550 | 1.7 | > 10000 | 77 | 100 | 170 | 70 | 150 | 600 | 98 | 290 | Active | 120 | 100 | 430 | 8400
3 | O=C(O)C=Cc1ccc(-c2ccc(OCC(=O)NO)c(C34CC5CC(CC(C5)C3)C4)c2)cc1 | 38 | 1100 | 2100 | 640 | 0.7 | 6090 | 520 | 180 | 410 | 11.2 | 420 | 12000 | 600 | 710 | Active | 250 | 22000 | 900 | 2800
